From patent US20260356804A1, “SODIUM CHANNEL BLOCKING COMPOUNDS, DERIVATIVES THEREOF, AND METHODS OF THEIR USE” (LATIGO BIOTHERAPEUTICS, INC., priority 2022, published 2026)
Read-outs that look alike come from different tables or passages of the source. Values belong to the compound of their own block, whether it stands above or below them.

Biological target: T1, human Nav1.8/b3 (Homo sapiens, UniProt Q9Y5Y9)
T1 construct: expressed in transfected cells; host or cells: CHO
Assay: Compound Profiling Human NaV1.8/β3 Cell Line—SyncroPatch384PE Assay (automated patch clamp, stably transfected CHO cells)
Type: cell-based
Conditions: Nav1.8/b3 CHO cells

[1] = P1 (IC50, resting state block), P1 measurement, resting state block, holding potential −120 mV, first set of compounds
[2] = P2 (IC50, inactivated state block), P2 measurement, inactivated state block, inactivation step −35 mV 10 sec, first set of compounds
[3] = P1 (IC50, resting state block), P1 measurement, resting state block, holding potential −120 mV, third set of compounds
[4] = P2 (IC50, inactivated state block), P2 measurement, inactivated state block, inactivation step −35 mV 10 sec, third set of compounds
[5] = P1 measurement, resting state block, holding potential −120 mV, third set of compounds, read-out: P1 (IC50, resting state block)
[6] = P2 measurement, inactivated state block, inactivation step −35 mV 10 sec, third set of compounds, read-out: P2 (IC50, inactivated state block)
[7] = P1 (IC50, resting state block), P1 measurement, resting state block, holding potential −120 mV, fourth set of compounds
[8] = P2 (IC50, inactivated state block), P2 measurement, inactivated state block, inactivation step −35 mV 10 sec, fourth set of compounds
[9] = P1 (IC50, resting state block), P1 measurement, resting state block, holding potential −120 mV, second set of compounds
[10] = P2 (IC50, inactivated state block), P2 measurement, inactivated state block, inactivation step −35 mV 10 sec, second set of compounds

T1 sequence (Q9Y5Y9 whole entry): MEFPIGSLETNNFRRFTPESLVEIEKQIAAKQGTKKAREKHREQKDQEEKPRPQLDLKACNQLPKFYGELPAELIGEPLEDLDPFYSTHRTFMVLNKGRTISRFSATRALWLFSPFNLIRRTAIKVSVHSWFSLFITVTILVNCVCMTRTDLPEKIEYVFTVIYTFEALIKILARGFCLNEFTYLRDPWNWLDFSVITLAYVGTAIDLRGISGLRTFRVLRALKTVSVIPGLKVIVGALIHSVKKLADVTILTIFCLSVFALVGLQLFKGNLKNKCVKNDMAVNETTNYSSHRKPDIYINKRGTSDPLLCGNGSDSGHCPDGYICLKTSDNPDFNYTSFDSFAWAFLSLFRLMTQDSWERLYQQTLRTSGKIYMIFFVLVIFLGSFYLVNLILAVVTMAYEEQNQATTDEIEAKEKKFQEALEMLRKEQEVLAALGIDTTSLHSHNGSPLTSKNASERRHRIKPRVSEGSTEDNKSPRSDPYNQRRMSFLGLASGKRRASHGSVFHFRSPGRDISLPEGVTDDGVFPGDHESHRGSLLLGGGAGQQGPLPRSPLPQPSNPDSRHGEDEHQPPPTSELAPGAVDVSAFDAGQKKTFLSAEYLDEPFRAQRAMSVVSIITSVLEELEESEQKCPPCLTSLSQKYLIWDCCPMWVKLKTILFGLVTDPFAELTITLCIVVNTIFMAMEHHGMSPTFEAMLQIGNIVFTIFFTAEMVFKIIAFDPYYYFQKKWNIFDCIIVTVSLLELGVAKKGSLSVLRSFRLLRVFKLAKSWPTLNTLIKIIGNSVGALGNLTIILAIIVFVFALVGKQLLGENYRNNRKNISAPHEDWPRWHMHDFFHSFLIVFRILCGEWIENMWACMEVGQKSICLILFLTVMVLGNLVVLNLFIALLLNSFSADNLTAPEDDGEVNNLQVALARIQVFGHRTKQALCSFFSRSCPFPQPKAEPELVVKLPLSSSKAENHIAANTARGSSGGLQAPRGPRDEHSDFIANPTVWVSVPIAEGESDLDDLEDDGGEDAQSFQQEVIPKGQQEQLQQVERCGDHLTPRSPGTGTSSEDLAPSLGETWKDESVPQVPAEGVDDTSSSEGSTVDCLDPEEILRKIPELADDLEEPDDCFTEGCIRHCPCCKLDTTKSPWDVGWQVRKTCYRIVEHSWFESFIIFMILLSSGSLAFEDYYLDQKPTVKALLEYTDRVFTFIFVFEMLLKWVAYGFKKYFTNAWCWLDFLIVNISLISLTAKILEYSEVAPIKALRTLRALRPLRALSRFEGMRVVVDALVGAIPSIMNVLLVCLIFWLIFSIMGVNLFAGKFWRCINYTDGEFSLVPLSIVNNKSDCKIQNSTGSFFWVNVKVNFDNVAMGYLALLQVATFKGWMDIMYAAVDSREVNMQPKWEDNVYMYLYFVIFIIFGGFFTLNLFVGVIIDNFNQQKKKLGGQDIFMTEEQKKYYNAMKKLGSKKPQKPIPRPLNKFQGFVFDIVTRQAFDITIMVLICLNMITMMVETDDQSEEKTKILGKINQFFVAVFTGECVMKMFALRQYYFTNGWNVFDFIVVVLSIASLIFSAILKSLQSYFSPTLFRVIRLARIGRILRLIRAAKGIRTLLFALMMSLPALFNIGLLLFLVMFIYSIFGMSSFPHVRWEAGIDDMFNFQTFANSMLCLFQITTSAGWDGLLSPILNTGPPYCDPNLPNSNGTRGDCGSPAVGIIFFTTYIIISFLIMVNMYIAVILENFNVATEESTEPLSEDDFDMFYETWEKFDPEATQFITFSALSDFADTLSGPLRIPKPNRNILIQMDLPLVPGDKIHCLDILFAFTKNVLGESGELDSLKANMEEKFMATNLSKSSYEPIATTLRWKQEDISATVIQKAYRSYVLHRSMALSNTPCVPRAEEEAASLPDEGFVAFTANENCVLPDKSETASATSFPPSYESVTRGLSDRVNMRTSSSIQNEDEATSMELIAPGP
T1 sequence (Q9NY72 23-215 partner): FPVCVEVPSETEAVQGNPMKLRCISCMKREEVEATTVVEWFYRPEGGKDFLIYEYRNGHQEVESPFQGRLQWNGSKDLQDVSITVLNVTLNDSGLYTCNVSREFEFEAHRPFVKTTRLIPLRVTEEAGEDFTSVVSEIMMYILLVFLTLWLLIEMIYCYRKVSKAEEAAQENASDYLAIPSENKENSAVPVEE

IC50 [1]: 5 to 50 nM
IC50 [2]: 5 to 50 nM
Compound: Cc1nc(F)ccc1Oc1cc(C(F)(F)F)ccc1C(=O)Nc1cccc([S@](C)(=N)=O)c1 [Example 2A, (R)-2-((6-fluoro-2-methylpyridin-3-yl)oxy)-N-(3-(S-methylsulfonimidoyl)phenyl)-4-(trifluoromethyl)benzamide]

IC50 [3]: > 200 nM
IC50 [4]: > 200 nM
Compound: Cc1nc(O)ccc1Oc1ncc(C(F)(F)F)c(C)c1C(=O)Nc1cccc([S@](C)(=N)=O)c1 [Example 117C]

IC50 [3]: < 5 nM
IC50 [4]: < 5 nM
Compound: COc1cc(C#N)ccc1Oc1ncc(C(F)(F)F)c(C)c1C(=O)Nc1cccc([S@](C)(=N)=O)c1 [Example 5C, (R)-2-(4-cyano-2-methoxyphenoxy)-4-methyl-N-(3-(S-methylsulfonimidoyl)phenyl)-5-(trifluoromethyl)nicotinamide]

IC50 [3]: < 5 nM
IC50 [4]: < 5 nM
Compound: Cc1nc(F)ccc1Oc1nc(C(F)(F)F)c(Br)c(C)c1C(=O)Nc1cccc([S@@](C)(=O)=NCCN)c1 [Example 96C]

IC50 [3]: 5 to 50 nM
IC50 [4]: 5 to 50 nM
Compound: Cc1nc(F)ccc1Oc1ncc(C(F)(F)F)c(C)c1C(=O)Nc1ccc(F)c([S@](C)(=N)=O)c1 (single isomer, unassigned) [Example 15C]

IC50 [5]: < 5 nM
IC50 [6]: < 5 nM
Compound: Cc1nc(F)ccc1Oc1nc(C2CC2)c(C(F)(F)F)c(C)c1C(=O)Nc1cccc([S@@](C)(=N)=O)c1 [Example 107C]

IC50 [5]: > 200 nM
IC50 [6]: > 200 nM
Compound: Cc1nc(F)ccc1Oc1ncc(C(F)F)c(C)c1C(=O)Nc1ccnc([S@](C)(=N)=O)c1 [Example 115C]

IC50 [7]: < 5 nM
IC50 [8]: < 5 nM
Compound: Cc1nc(F)ccc1Oc1ncc(C(F)(F)F)c(C)c1C(=O)Nc1cccc([S@@](C)(=O)=NC(=O)[C@H](C)O)c1 [Example 13D, 2-((6-fluoro-2-methylpyridin-3-yl)oxy)-N-(3-((R)—N—((S)-2-hydroxypropanoyl)-S-methylsulfonimidoyl)phenyl)-4-methyl-5-(trifluoromethyl)nicotinamide]

IC50 [3]: < 5 nM
IC50 [4]: < 5 nM
Compound: COc1cc(C#N)ccc1Oc1ncc(Br)c(C)c1C(=O)Nc1cccc([S@](C)(=N)=O)c1 [Example 24C, (R)-5-bromo-2-(4-cyano-2-methoxyphenoxy)-4-methyl-N-(3-(S-methylsulfonimidoyl)phenyl)nicotinamide]

IC50 [7]: < 5 nM
IC50 [8]: < 5 nM
Compound: Cc1nc(F)ccc1Oc1ncc(C(F)(F)F)c(C)c1C(=O)Nc1cccc([S@@](C)(=O)=NC(=O)[C@@H](C)O)c1 [Example 16D, 2-((6-fluoro-2-methylpyridin-3-yl)oxy)-N-(3-((R)—N—((R)-2-hydroxypropanoyl)-S-methylsulfonimidoyl)phenyl)-4-methyl-5-(trifluoromethyl)nicotinamide]

IC50 [7]: < 5 nM
IC50 [8]: < 5 nM
Compound: Cc1nc(F)ccc1Oc1ncc(C(F)(F)F)c(C)c1C(=O)Nc1cccc([S@@](C)(=O)=NC(=O)[C@@H]2C[C@H](O)CN2)c1 [Example 27D, 2-((6-fluoro-2-methylpyridin-3-yl)oxy)-N-(3-((R)—N-((2S,4S)-4-hydroxypyrrolidine-2-carbonyl)-S-methylsulfonimidoyl)phenyl)-4-methyl-5-(trifluoromethyl)nicotinamide]

IC50 [3]: 50 to 100 nM
IC50 [4]: 50 to 100 nM
Compound: Cc1nc(F)ccc1Oc1nc2ccccc2cc1C(=O)Nc1cccc([S@](C)(=N)=O)c1 [Example 97C]

IC50 [3]: < 5 nM
IC50 [4]: < 5 nM
Compound: COc1cc(C#N)ccc1Oc1ncc(Cl)c(C)c1C(=O)Nc1cccc(S(C)(=N)=O)c1 (stereo not drawn) [Example 25C, 5-chloro-2-(4-cyano-2-methoxyphenoxy)-4-methyl-N-(3-(S-methylsulfonimidoyl)phenyl)nicotinamide]

IC50 [9]: < 5 nM
IC50 [10]: < 5 nM
Compound: Cc1nc(F)ccc1Oc1ccc(C(F)(F)F)c(C)c1C(=O)Nc1cccc([S@@](C)(=O)=NC(=O)CN)c1 [Example 26B]

IC50 [9]: < 5 nM
IC50 [10]: < 5 nM
Compound: Cc1nc(F)ccc1Oc1ccc(C(F)(F)F)c(F)c1C(=O)Nc1cccc([S@@](C)(=O)=NC(=O)CN)c1 [Example 16B, (R)-2-fluoro-6-((6-fluoro-2-methylpyridin-3-yl)oxy)-N-(3-(N-glycyl-S-methylsulfonimidoyl)phenyl)-3-(trifluoromethyl)benzamide]

IC50 [1]: < 5 nM
IC50 [2]: < 5 nM
Compound: Cc1nc(F)ccc1Oc1cc(C(F)(F)F)c(Cl)cc1C(=O)Nc1ccc(F)c([S@](C)(=N)=O)c1 [Example 71A]

IC50 [1]: < 5 nM
IC50 [2]: < 5 nM
Compound: C[S@@](=N)(=O)c1cc(NC(=O)c2c(F)cc(C(F)(F)F)cc2Oc2ccc(OC(F)(F)F)cc2)ccn1 [Example 44A]

IC50 [1]: 50 to 100 nM
IC50 [2]: 50 to 100 nM
Compound: Cc1nc(F)ccc1Oc1cc(C(F)(F)F)c(Cl)cc1C(=O)Nc1ccc([S@](C)(=N)=O)cc1 [Example 49A]

IC50 [3]: > 200 nM
IC50 [4]: > 200 nM
Compound: COc1cc(C#N)ccc1Oc1ncc(-c2ccc(C(F)F)cc2)c(C)c1C(=O)Nc1ccnc(S(C)(=N)=O)c1 (stereo not drawn) [Example 125C]

IC50 [3]: < 5 nM
IC50 [4]: < 5 nM
Compound: COc1cc(C#N)ccc1Oc1ncc(-c2ccc(C(F)F)cc2)c(C)c1C(=O)Nc1cccc([S@](C)(=N)=O)c1 [Example 23C, (R)-2-(4-cyano-2-methoxyphenoxy)-5-(4-(difluoromethyl)phenyl)-4-methyl-N-(3-(S-methylsulfonimidoyl)phenyl)nicotinamide]

IC50 [1]: < 5 nM
IC50 [2]: < 5 nM
Compound: Cc1nc(F)ccc1Oc1cc(C2CC2)c(C(F)(F)F)c(C)c1C(=O)Nc1cccc([S@@](C)(=N)=O)c1 [Example 42A]

IC50 [7]: < 5 nM
IC50 [8]: < 5 nM
Compound: Cc1nc(F)ccc1Oc1nnc(C(F)(F)F)c(C)c1C(=O)Nc1cccc([S@@](C)(=O)=NC(=O)[C@H](C)O)c1 [Example 18D, 3-((6-fluoro-2-methylpyridin-3-yl)oxy)-N-(3-((R)—N—((S)-2-hydroxypropanoyl)-S-methylsulfonimidoyl)phenyl)-5-methyl-6-(trifluoromethyl)pyridazine-4-carboxamide]

IC50 [9]: 5 to 50 nM
IC50 [10]: 5 to 50 nM
Compound: Cc1nc(F)ccc1Oc1cc(C(F)(F)F)ccc1C(=O)Nc1cccc([S@@](C)(=O)=NC(=O)[C@@H](C)O)c1 [Example 13B, 2-((6-fluoro-2-methylpyridin-3-yl)oxy)-N-(3-((R)—N—((R)-2-hydroxypropanoyl)-S-methylsulfonimidoyl)phenyl)-4-(trifluoromethyl)benzamide]

IC50 [1]: 5 to 50 nM
IC50 [2]: 5 to 50 nM
Compound: Cc1nc(F)ccc1Oc1cc(C(F)(F)F)c(Cl)cc1C(=O)Nc1ccc(C(N)=O)nc1 [Example 64A]

IC50 [3]: 5 to 50 nM
IC50 [4]: 5 to 50 nM
Compound: Cc1nc(F)ccc1Oc1nc(C(F)(F)F)c(Cl)c(C)c1C(=O)Nc1ccnc([S@](C)(=N)=O)c1 [Example 100C]

IC50 [9]: < 5 nM
IC50 [10]: < 5 nM
Compound: Cc1nc(F)ccc1Oc1ccc(C(F)(F)F)c(F)c1C(=O)Nc1cccc([S@@](C)(=O)=NC(=O)[C@@H](C)O)c1 [Example 19B, 2-fluoro-6-((6-fluoro-2-methylpyridin-3-yl)oxy)-N-(3-((R)—N—((R)-2-hydroxypropanoyl)-S-methylsulfonimidoyl)phenyl)-3-(trifluoromethyl)benzamide]

IC50 [1]: < 5 nM
IC50 [2]: < 5 nM
Compound: Cc1nc(F)ccc1Oc1cc(C(F)(F)F)c(Cl)cc1C(=O)Nc1cccc(C(N)=O)c1 [Example 73A]

IC50 [7]: < 5 nM
IC50 [8]: < 5 nM
Compound: CNCC(=O)N=[S@](C)(=O)c1cccc(NC(=O)c2c(Oc3ccc(F)nc3C)nnc(C(F)(F)F)c2C)c1 [Example 25D, (R)-3-((6-fluoro-2-methylpyridin-3-yl)oxy)-5-methyl-N-(3-(S-methyl-N-(methylglycyl)sulfonimidoyl)phenyl)-6-(trifluoromethyl)pyridazine-4-carboxamide]

IC50 [3]: < 5 nM
IC50 [4]: < 5 nM
Compound: Cc1nc(F)ccc1Oc1ncc(C(F)(F)F)c(C)c1C(=O)Nc1ccc(C(N)=O)cc1 [Example 118C]

IC50 [7]: < 5 nM
IC50 [8]: < 5 nM
Compound: Cc1nc(F)ccc1Oc1ncc(C(F)(F)F)c(C)c1C(=O)Nc1cccc([S@@](C)(=O)=NC(=O)CO)c1 [Example 12D, (R)-2-((6-fluoro-2-methylpyridin-3-yl)oxy)-N-(3-(N-(2-hydroxyacetyl)-S-methylsulfonimidoyl)phenyl)-4-methyl-5-(trifluoromethyl)nicotinamide]

IC50 [1]: 5 to 50 nM
IC50 [2]: 5 to 50 nM
Compound: Cc1nc(F)ccc1Oc1cc(C(F)(F)F)cc(F)c1C(=O)Nc1ccnc([S@@](C)(=N)=O)c1 [Example 33A]

IC50 [9]: < 5 nM
IC50 [10]: < 5 nM
Compound: Cc1nc(F)ccc1Oc1cc(C(F)(F)F)c(Cl)cc1C(=O)Nc1cccc([S@@](C)(=O)=NC(=O)[C@@H](C)N)c1 [Example 5B, N-(3-((R)—N-(D-alanyl)-S-methylsulfonimidoyl)phenyl)-5-chloro-2-((6-fluoro-2-methylpyridin-3-yl)oxy)-4-(trifluoromethyl)benzamide]

IC50 [5]: < 5 nM
IC50 [6]: < 5 nM
Compound: Cc1nc(F)ccc1Oc1cnc(C(F)(F)F)c(Cl)c1C(=O)Nc1cccc([S@](C)(=N)=O)c1 [Example 45C, (R)-3-chloro-5-((6-fluoro-2-methylpyridin-3-yl)oxy)-N-(3-(S-methylsulfonimidoyl)phenyl)-2-(trifluoromethyl)isonicotinamide]
